What follows are compounds tested on Blood (assay: Drug level in Homo sapiens (human) whole blood assessed as retention time by UPLC-TOF-MS analysis).
With CO[C@]12CC[C@@]3(C[C@@H]1[C@](C)(O)C(C)(C)C)[C@H]1Cc4ccc(O)c5c4[C@@]3(CCN1CC1CC1)[C@H]2O5 [BUPRENORPHINE] the Retention_time was 5.59 min.
Compound Nc1ccc2c(c1)C(c1ccccc1)=NCC(=O)N2 [7-AMINO-NITRAZEPAM] has a Retention_time of 2.26 min.
In the case of CN(C)C(=O)Oc1cc(OC(=O)N(C)C)cc(C(O)CNC(C)(C)C)c1 (centres undefined) [BAMBUTEROL], the Retention_time is reported as 4.84 min.
COc1cc2nc(N3CCN(C(=O)C4COc5ccccc5O4)CC3)nc(N)c2cc1OC (centres undefined) [DOXAZOSIN] was tested, and the Retention_time was 5.43 min.
CCCCN1CCCCC1C(=O)Nc1c(C)cccc1C (centres undefined) [BUPIVACAINE] gave a Retention_time of 5.08 min.
CCNCCN1C(=O)CN=C(c2ccccc2F)c2cc(Cl)ccc21 was tested, and the Retention_time was 6.19 min.
Compound NCCC(Oc1ccc(C(F)(F)F)cc1)c1ccccc1 (centres undefined) [NORFLUOXETINE] has a Retention_time of 6 min.
With NC(=O)N1c2ccccc2CC(=O)c2ccccc21 [OXCARBAZEPINE] the Retention_time was 5.29 min.
With CC(CN(C)C)CN1c2ccccc2CCc2ccccc21 (centres undefined) [TRIMIPRAMINE] the Retention_time was 6.05 min.
Work on COc1cccc(C2(O)CCCCC2CN(C)C)c1 (centres undefined) [TRAMADOL] yielded a Retention_time of 4.09 min.
CNC(C)Cc1ccc(OC)cc1 (centres undefined) gave a Retention_time of 3.14 min.
For CN[C@@H](C)Cc1ccccc1 [METHAMPHETAMINE], the Retention_time was 2.86 min.
For Clc1cccc(N2CCNCC2)c1 [CHLOROPHENYLPIPERAZINE], the Retention_time was 4.08 min.
CN1CC[C@]23c4c5ccc(O)c4O[C@H]2C(=O)CC[C@H]3[C@H]1C5 [HYDROMORPHONE] showed a Retention_time of 1.84 min.
With CN(C)c1nc(N)c(C(=O)NC(=N)N)nc1Cl the Retention_time was 3.54 min.
O=c1[nH]c2ccccc2n1C1CCN(CCCC(c2ccc(F)cc2)c2ccc(F)cc2)CC1 [PIMOZIDE] gave a Retention_time of 6.28 min.
O=C(NCCN1CCOCC1)c1ccc(Cl)cc1 [MOCLOBEMIDE] showed a Retention_time of 3.39 min.
In the case of CN[C@H]1CC[C@@H](c2ccc(Cl)c(Cl)c2)c2ccccc21 [SERTRALINE], the Retention_time is reported as 6.04 min.
Work on NCC1(CC(=O)O)CCCCC1 [GABAPENTIN] yielded a Retention_time of 2.41 min.
For CN(C)CCCN1c2ccccc2CCc2ccc(Cl)cc21 [CLOMIPRAMINE], the Retention_time was 6.22 min.
In the case of CCCc1nn(C)c2c(=O)[nH]c(-c3cc(S(=O)(=O)N4CCN(C)CC4)ccc3OCC)nc12, the Retention_time is reported as 5.54 min.
OCCOCCN1CCN(C2=Nc3ccccc3Sc3ccccc32)CC1 [QUETIAPINE] was tested, and the Retention_time was 5.35 min.
COc1ccc(CCN(C)CCCC(C#N)(c2ccc(OC)c(OC)c2)C(C)C)cc1OC (centres undefined) gave a Retention_time of 5.95 min.
Compound CN1C(=O)CC(=O)N(c2ccccc2)c2cc(Cl)ccc21 [CLOBAZAM] has a Retention_time of 6.28 min.
CC(C)NCC(O)COc1cccc2[nH]ccc12 (centres undefined) [PINDOLOL] showed a Retention_time of 3 min.
Compound O=C1NCCN1CCN1CCC(c2cn(-c3ccc(F)cc3)c3ccc(Cl)cc23)CC1 [SERTINDOLE] has a Retention_time of 6.3 min.
In the case of CNCCC=C1c2ccccc2CCc2ccccc21 [NORTRIPTYLINE], the Retention_time is reported as 5.92 min.
CCOC(=O)c1ncn2c1CN(C)C(=O)c1cc(F)ccc1-2 [FLUMAZENIL] was tested, and the Retention_time was 5.13 min.
For NC1=Nc2ccc(Cl)cc2C(c2ccccc2)=[N+]([O-])C1, the Retention_time was 4.85 min.
CN(C)CCC=C1c2ccccc2COc2ccccc21 [DOXEPIN] gave a Retention_time of 5.59 min.
CC(=O)c1ccc2c(c1)N(CCCN(C)C)c1ccccc1S2 [ACEPROMAZINE] was tested, and the Retention_time was 5.67 min.
With Fc1ccccc1C1=NCC(=S)N(CC(F)(F)F)c2ccc(Cl)cc21 [QUAZEPAM] the Retention_time was 7.59 min.
In the case of CN1C(=O)CN=C(c2ccccc2F)c2cc([N+](=O)[O-])ccc21 [FLUNITRAZEPAM], the Retention_time is reported as 6.16 min.
For O=C1CN=C(c2ccccn2)c2cc(Br)ccc2N1 [BROMAZEPAM], the Retention_time was 5.33 min.
CN1CC[C@]23CCCC[C@H]2[C@H]1Cc1ccc(O)cc13 [LEVORPHANOL] gave a Retention_time of 3.82 min.
For CNC(C)Cc1ccc2c(c1)OCO2 (centres undefined) [MIDOMAFETAMINE], the Retention_time was 2.89 min.
CN1CCN(C(=O)OC2c3nccnc3C(=O)N2c2ccc(Cl)cn2)CC1 (centres undefined) [ZOPICLONE] showed a Retention_time of 3.88 min.
O=C1CN=C(c2ccccc2)c2cc(Cl)ccc2N1CC(F)(F)F [HALAZEPAM] was tested, and the Retention_time was 7.22 min.
With CN1CCN2c3ncccc3Cc3ccccc3C2C1 (centres undefined) [MIRTAZAPINE] the Retention_time was 3.91 min.
Compound CC(CN1c2ccccc2Sc2ccccc21)N(C)C (centres undefined) [PROMETHAZINE] has a Retention_time of 5.7 min.
In the case of CCCCNC(=O)NS(=O)(=O)c1ccc(C)cc1 [TOLBUTAMIDE], the Retention_time is reported as 6.16 min.
CCCC(=O)Nc1ccc(OCC(O)CNC(C)C)c(C(C)=O)c1 (centres undefined) [ACEBUTOLOL] was tested, and the Retention_time was 4.07 min.
Nc1nnc(-c2cccc(Cl)c2Cl)c(N)n1 [LAMOTRIGINE] was tested, and the Retention_time was 3.78 min.
With O=C(NCC1CCCCN1)c1cc(OCC(F)(F)F)ccc1OCC(F)(F)F (centres undefined) [FLECAINIDE] the Retention_time was 5.58 min.
CN[C@@H](C)[C@H](O)c1ccccc1 [EPHEDRINE] was tested, and the Retention_time was 2.28 min.
Compound C=CCN1CC[C@]23c4c5ccc(O)c4O[C@H]2C(=O)CC[C@@]3(O)[C@H]1C5 [NALOXONE] has a Retention_time of 2.46 min.
In the case of CN(C)CCc1c[nH]c2ccccc12, the Retention_time is reported as 2.89 min.
For COC(=O)C(c1ccccc1)C1CCCCN1 (centres undefined) [METHYLPHENIDATE], the Retention_time was 4.16 min.
Compound CN(C)CCCC1(c2ccc(F)cc2)OCc2cc(C#N)ccc21 (centres undefined) [CITALOPRAM] has a Retention_time of 5.53 min.
C(=C\c1ccccc1)/CN1CCN(C(c2ccccc2)c2ccccc2)CC1 [CINNARIZINE] showed a Retention_time of 6.57 min.
CNC1=Nc2ccc(Cl)cc2C(c2ccccc2)=[N+]([O-])C1 [CHLORDIAZEPOXIDE] was tested, and the Retention_time was 4.94 min.
Work on O=C1CN=C(c2ccccc2)c2cc(Cl)ccc2N1CC1CC1 [PRAZEPAM] yielded a Retention_time of 7.25 min.
For O=C1CN=C(c2ccccc2Cl)c2cc([N+](=O)[O-])ccc2N1 [CLONAZEPAM], the Retention_time was 5.99 min.
With COc1cc(CCN)c(OC)cc1Br the Retention_time was 4.52 min.
Compound CCN(CC)C(=O)[C@@H]1C=C2c3cccc4[nH]cc(c34)C[C@H]2N(C)C1 [LYSERGIDE] has a Retention_time of 4.88 min.
In the case of CN1C(=O)CN=C(c2ccccc2F)c2cc(N)ccc21 [7-AMINO-FLUNITRAZEPAM], the Retention_time is reported as 4.02 min.
Cc1ccc(/C(=C\CN2CCCC2)c2cccc(/C=C/C(=O)O)n2)cc1 [ACRIVASTINE] showed a Retention_time of 5.64 min.
O=C1CC(=O)N(c2ccccc2)c2cc(Cl)ccc2N1 [NOR-CLOBAZAM] showed a Retention_time of 5.61 min.
With CCC(Cc1ccc2c(c1)OCO2)NC (centres undefined) the Retention_time was 3.61 min.
For COc1ccccc1OCCNCC(O)COc1cccc2[nH]c3ccccc3c12 (centres undefined) [CARVEDILOL], the Retention_time was 5.71 min.
COC(=O)[C@H]1[C@@H](OC(=O)c2ccccc2)C[C@@H]2CC[C@H]1N2C [COCAINE] gave a Retention_time of 4.46 min.
Compound CC(C)NCC(O)COc1cccc2ccccc12 (centres undefined) [PROPRANOLOL] has a Retention_time of 5.28 min.
CCN1CCCC1CNC(=O)c1cc(S(=O)(=O)CC)c(N)cc1OC (centres undefined) [AMISULPRIDE] gave a Retention_time of 3.4 min.
Work on CN(C)CCC=C1c2ccccc2CCc2ccccc21 [AMITRIPTYLINE] yielded a Retention_time of 5.86 min.

Reference: ChEMBL document CHEMBL3045108, “Advanced QSRR models of toxicological screening of basic drugs in whole blood by UPLC-TOFMS” (Med Chem Res, 2012)
